The nature of data set [1]: Complex formation constant from fluorescence intensity change on addition of sodium. It counts as binding. The settings on record: 0.2 M Tris-perchlorate buffer pH 7.5, sodium perchlorate, DMF 0.1%, compound 3 μM; read-out: Complex formation constant Na^+. On the procedure:
(§1) Fluorescence intensity changes of the compound obtained in Example 5 and the compound obtained in Example 7 above were measured with addition of sodium, magnesium, and potassium. Measurements were conducted in 0.2 M Tris-perchlorate buffers at pH 7.5 containing various concentrations of sodium perchlorate and magnesium perchlorate using dimethylformamide (0.1%) as co-solvent when sodium and magnesium were added, and in 0.2 M Tris-hydrochloride buffers at pH 7.5 containing various concentrations of potassium chloride using dimethylformamide (0.1%) as co-solvent when potassium was added. The final concentrations of the compounds obtained in Example 5 and Example 7 were adjusted to be 3 μM. The compound obtained in Example 5 was measured at excitation wavelength of 492 nm and fluorescence wavelength of 513 nm and the compound obtained in Example 7 was measured at excitation wavelength of 504 nm and fluorescence wavelength of […].

A short description of data set [2]: Complex formation constant from fluorescence intensity change on addition of magnesium. The conditions noted are these: 0.2 M Tris-perchlorate buffer pH 7.5, magnesium perchlorate, DMF 0.1%, compound 3 μM. It is filed as binding. On the procedure:
as §1

A short description of data set [3]: Complex formation constant from fluorescence intensity change on addition of potassium. It counts as binding. The settings on record: 0.2 M Tris-hydrochloride buffer pH 7.5, potassium chloride, DMF 0.1%, compound 3 μM; read-out: Complex formation constant K^+. The method, then:
as §1

The nature of data set [4]: Fluorescence intensity change against pH change under co-presence of sodium. The conditions noted are these: 0.2 M Tris-phosphate buffers at various pH, 500 mM sodium perchlorate, DMF 0.1%. It counts as physicochemical. The method, then: Fluorescence intensity changes of the compound obtained in Example 7 and Sodium Green tetra(tetramethylammonium)salt (Molecular Probes Inc.) against pH change were studied under co-presence of sodium. Measurements were conducted in 0.2 M Tris-phosphate buffers at various pH containing 500 mM of sodium perchlorate using dimethylformamide (0.1%) as a co-solvent. The compound obtained in Example 7 was measured at excitation wavelength of 504 nm and fluorescence wavelength of 522 nm and Sodium Green tetra(tetramethylammonium)salt was measured at excitation wavelength of 508 nm and fluorescence wavelength of 533 nm.

Molecules are shown by their SMILES.

On to `Cc1cc2c(cc1-c1c3cc(Cl)c(=O)cc-3oc3cc(O)c(Cl)cc13)OCCOCCOCCOCCO2` [Example 7], for which the Kd in data set [1] was determined as 320 µM; in data set [3], 410 µM. In data set [2], the “Complex formation constant Mg^+” value is given as “Unmeasurable”. For the same compound, the “Susceptibility of fluorescence intensity to pH change compared with Sodium Green tetra(tetramethylammonium)salt” value in data set [4] was “less susceptible to a pH change”.
